{"source": "patent US12378198B2", "about": "“Crystalline l-arginine salt of (R)-2-(7-(4-cyclopentyl-3-(trifluoromethyl)benzyloxy)-1,2,3,4-tetrahydrocyclo-penta [b]indol-3-yl)acetic acid(compound1) for use in SIPI receptor-associated disorders” (Arena Pharmaceuticals, Inc., priority 2015, dated 2025)", "key": {"[1]": {"biological_target": "S1P2 (Homo sapiens, UniProt O95136)", "sequence (O95136 whole entry, species assumed)": "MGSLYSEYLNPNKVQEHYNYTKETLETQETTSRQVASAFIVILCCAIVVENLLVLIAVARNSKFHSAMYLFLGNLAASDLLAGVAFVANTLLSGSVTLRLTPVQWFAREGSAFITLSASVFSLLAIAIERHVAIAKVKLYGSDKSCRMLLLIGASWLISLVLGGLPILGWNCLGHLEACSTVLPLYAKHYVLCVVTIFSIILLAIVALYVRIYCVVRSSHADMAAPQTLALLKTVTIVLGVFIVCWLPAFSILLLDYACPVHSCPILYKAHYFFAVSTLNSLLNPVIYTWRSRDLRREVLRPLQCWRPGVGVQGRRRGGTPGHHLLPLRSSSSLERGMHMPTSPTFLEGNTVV", "details": "read-out: EC50 β-arrestin; cited from earlier work"}, "[2]": {"system": "lymphocyte", "details": "monkey; reflects total plasma concentration; read-out: calculated lymphocyte lowering IC50; cited from earlier work"}, "[3]": {"details": "rat; cited from earlier work"}, "[4]": {"system": "lymphocyte", "details": "mouse; reflects total plasma concentration; read-out: calculated lymphocyte lowering IC50; cited from earlier work"}, "[5]": {"system": "experimental autoimmune encephalomyelitis (EAE) model", "details": "cited from earlier work"}, "[6]": {"biological_target": "S1P3 (Homo sapiens, UniProt Q99500)", "sequence (Q99500 whole entry, species assumed)": "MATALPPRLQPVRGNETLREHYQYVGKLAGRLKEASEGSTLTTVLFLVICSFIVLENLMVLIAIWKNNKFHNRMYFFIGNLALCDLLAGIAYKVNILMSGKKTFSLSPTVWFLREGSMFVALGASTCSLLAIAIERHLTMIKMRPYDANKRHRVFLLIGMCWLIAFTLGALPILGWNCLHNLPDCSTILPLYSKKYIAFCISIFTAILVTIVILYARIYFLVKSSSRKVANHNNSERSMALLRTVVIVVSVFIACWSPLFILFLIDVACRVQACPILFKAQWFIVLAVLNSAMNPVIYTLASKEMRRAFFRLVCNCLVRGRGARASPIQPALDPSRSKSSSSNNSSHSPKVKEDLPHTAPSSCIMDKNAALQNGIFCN", "details": "read-out: EC50 β-arrestin; cited from earlier work"}, "[7]": {"details": "human; cited from earlier work"}, "[8]": {"system": "collagen induced arthritis (CIA) model", "details": "cited from earlier work"}, "[9]": {"system": "lymphocyte", "details": "rat; reflects total plasma concentration; read-out: calculated lymphocyte lowering IC50; cited from earlier work"}, "[10]": {"system": "lymphocyte", "details": "dog; reflects total plasma concentration; read-out: calculated lymphocyte lowering IC50; cited from earlier work"}, "[11]": {"system": "lymphocyte count", "test": "Phase 1b clinical trial, lymphocyte count lowering in blood", "assay_type": "in vivo, healthy volunteers", "experimental": "The L-arginine salt of Compound 1 was selected for clinical evaluation. A randomized, double-blind, placebo-controlled Phase 1b clinical trial was conducted to evaluate the safety, tolerability, pharmacodynamics, and pharmacokinetics of multiple-ascending doses of the L-arginine salt of Compound 1 in five different dosing cohorts. A total of 50 healthy volunteers received the L-arginine salt of Compound 1 and 10 healthy volunteers received placebo for 21 days."}, "[12]": {"test": "BET specific surface area, nitrogen adsorption", "assay_type": "physicochemical", "details": "N2 adsorption at 77.3 K, eleven point method, P/P0 about 0.05 to about 0.3, degassed at 25° C. for 960 minutes", "excerpt": "In addition to the techniques described herein, specific surface can also be used to characterize the free-plates of the present invention. Accordingly, the specific surface area values disclosed in the present invention have been obtained by means of a specific surface area analysis technique based on the BET (Brunauer, Emmett and Teller) theory, which is a well-accepted theory known in the art for the calculation of surface areas of solids by means of measuring their physical adsorption of gas molecules (see: Brunauer, S.; Emmett, P. H.; and Teller, E.; J. Am. Chem. Soc., 1938, 60, 309). In particular, the specific surface area values measured in the present invention have been calculated from the BET surface area plot obtained by measuring the quantity of nitrogen gas molecules adsorbed by a weighted amount of solid at different relative pressures (P/P0) within the range 0.05-0.3 (P/P0), at 77.3 K. The measurement of the adsorption of gas molecules was carried out by means of a Micromeritics™ TriStar II BET surface analyzer having the characteristics as set out below in Example 14. Namely, nitrogen gas was used for the adsorption measurement. The sample for each analysis was degassed at 25° C. for 960 minutes under vacuum (i.e., 100 mm/Hg). The determination of the adsorption of nitrogen was measured at 77.3 K at eleven relative pressures (P/P0) sufficiently dispersed within the range of about 0.05 to about 0.30 (i.e. eleven absolute pressures in the range of about 36 mm Hg to about 223 mm Hg relative to the saturated pressure at the time of measurement that ranged from about 738 mmHg to about 743 mmHg).\nIn general, the specific surface areas for Lots A1-A9 (plates) and H1-H6 (spherulites) were determined by physical adsorption of nitrogen gas on the surface of the sample from each lot using the well-established technique based on the Brunauer, Emmett, and Teller theory.\nThe BET surface areas for the samples were measured by Micromeritics Pharmaceutical Services using a Micromeritics™ TriStar II BET surface area analyzer (MicroActive for TriStar II Plus 2.02 Software™). The samples were degassed at 25° C. for 960 minutes under vacuum (i.e., 100 mm/Hg). The determination of the adsorption of N2 at 77.3 K was measured using a BET surface area eleven point method with relative pressures in the range of about 0.05 to about 0.3 (P/P0) for a weighed amount of each sample, see TABLE M1, TABLE M2, and TABLE N below. The analysis was performed per ISO9277."}, "[13]": {"test": "Dynamic moisture-sorption (DMS) analysis", "assay_type": "physicochemical", "details": "DMS at 25° C.", "experimental": "A dynamic moisture-sorption (DMS) analysis was performed on representative Lot A2 (see, Example 3, TABLE A) of the L-arginine salt of Compound 1 having the plate morphology and representative Lot H2 (prepared in a similar manner as described in Example 8, Method 2 Steps G and H in WO2011/094008; and described in TABLE K, Example 8 herein) of the L-arginine salt of Compound 1 having the spherulite morphology. […] By comparison the L-arginine salt of Compound 1 (spherulite morphology) gained between 0.5% weight (adsorption cycle) and 0.7% weight (desorption cycle) at 90% RH and 25° C. […] DMS analysis was performed using a TA Instruments Q5000 SA (EQ2418). Instrument performance was verified in-house. Samples were added to a tared sample holder on the Q5000 SA balance. The sample was dried at 40° C. and then analyzed at 25° C. with an adsorption phase from 30% RH to 90% RH and a desorption phase from 90% RH to 10% RH."}}, "note": "Structures can show the parent of a compound that is named as a salt. Where two headings read alike, the source gives them in different places."}
{"smiles": "O=C(O)C[C@H]1CCc2c1[nH]c1ccc(OCc3ccc(C4CCCC4)c(C(F)(F)F)c3)cc21", "note": "[Compound 1, (R)-2-(7-(4-cyclopentyl-3-(trifluoromethyl)benzyloxy)-1,2,3,4-tetrahydrocyclopenta[b]indol-3-yl)acetic acid]", "values": [{"measurement": "EC50", "setting": "[1]", "result": "> 10", "unit": "µM"}, {"measurement": "IC50", "setting": "[2]", "result": 0.098, "unit": "µM"}, {"measurement": "protein bound", "setting": "[3]", "result": 98.0, "unit": "%"}, {"measurement": "IC50", "setting": "[4]", "result": 0.101, "unit": "µM"}, {"measurement": "EAE disease, therapeutic administration", "setting": "[5]; administered day 18 to day 37, all animals with severe disease at start, similar to fingolimod", "result": "reverse the disease relative to vehicle"}, {"measurement": "EAE disease onset and severity, prophylactic", "setting": "[5]; prophylactic dosing, discontinued at day 25, relative to vehicle", "result": "prevented the onset and severity of disease relative to vehicle up to day 25"}, {"measurement": "EC50", "setting": "[6]", "result": "> 10", "unit": "µM"}, {"measurement": "protein bound", "setting": "[7]", "result": 97.8, "unit": "%"}, {"measurement": "histological parameters in knees and ankles", "setting": "[8]; CIA rats", "result": "Improvement in histological parameters in the knees and ankles"}, {"measurement": "ankle diameters", "setting": "[8]; prophylactic daily oral dose, day 17, similar to fingolimod or methotrexate", "result": "significant reduction in ankle diameters"}, {"measurement": "IC50", "setting": "[9]", "result": 0.051, "unit": "µM"}, {"measurement": "IC50", "setting": "[10]", "result": 0.058, "unit": "µM"}]}
{"smiles": "O=C(O)C[C@H]1CCc2c1[nH]c1ccc(OCc3ccc(C4CCCC4)c(C(F)(F)F)c3)cc21", "note": "[L-arginine salt of Compound 1, L-arginine salt of (R)-2-(7-(4-cyclopentyl-3-(trifluoromethyl)benzyloxy)-1,2,3,4-tetrahydrocyclo-penta[b]indol-3-yl)acetic acid]", "values": [{"measurement": "lymphocyte count, mean decrease from baseline", "setting": "[11]; multiple-ascending doses for 21 days, dose-dependent", "result": "up to 69%"}, {"measurement": "lymphocyte count recovery to baseline", "setting": "[11]; on average, after conclusion of dosing", "result": "within one week"}]}
{"smiles": "O=C(O)C[C@H]1CCc2c1[nH]c1ccc(OCc3ccc(C4CCCC4)c(C(F)(F)F)c3)cc21", "note": "[Lot A1]", "values": [{"measurement": "BET Surface Area", "setting": "[12]; listed as A1", "result": 0.7, "unit": "m^2/g"}]}
{"smiles": "O=C(O)C[C@H]1CCc2c1[nH]c1ccc(OCc3ccc(C4CCCC4)c(C(F)(F)F)c3)cc21", "note": "[Lot A2]", "values": [{"measurement": "BET Surface Area", "setting": "[12]; listed as A2", "result": 0.7, "unit": "m^2/g"}, {"measurement": "hygroscopicity", "setting": "[13]", "result": "non-hygroscopic"}, {"measurement": "weight gain at 90% RH", "setting": "[13]; 90% RH", "result": 0.2, "unit": "% weight"}]}
{"smiles": "O=C(O)C[C@H]1CCc2c1[nH]c1ccc(OCc3ccc(C4CCCC4)c(C(F)(F)F)c3)cc21", "note": "[Lot A3]", "values": [{"measurement": "BET Surface Area", "setting": "[12]; listed as A3", "result": 1.5, "unit": "m^2/g"}]}
{"smiles": "O=C(O)C[C@H]1CCc2c1[nH]c1ccc(OCc3ccc(C4CCCC4)c(C(F)(F)F)c3)cc21", "note": "[Lot A4]", "values": [{"measurement": "BET Surface Area", "setting": "[12]; listed as A4", "result": 1.0, "unit": "m^2/g"}]}
{"smiles": "O=C(O)C[C@H]1CCc2c1[nH]c1ccc(OCc3ccc(C4CCCC4)c(C(F)(F)F)c3)cc21", "note": "[Lot A5]", "values": [{"measurement": "BET Surface Area", "setting": "[12]; listed as A5", "result": 0.8, "unit": "m^2/g"}]}
{"smiles": "O=C(O)C[C@H]1CCc2c1[nH]c1ccc(OCc3ccc(C4CCCC4)c(C(F)(F)F)c3)cc21", "note": "[Lot A6]", "values": [{"measurement": "BET Surface Area", "setting": "[12]; listed as A6", "result": 2.4, "unit": "m^2/g"}]}
{"smiles": "O=C(O)C[C@H]1CCc2c1[nH]c1ccc(OCc3ccc(C4CCCC4)c(C(F)(F)F)c3)cc21", "note": "[Lot A7]", "values": [{"measurement": "BET Surface Area", "setting": "[12]; listed as A7", "result": 1.9, "unit": "m^2/g"}]}
{"smiles": "O=C(O)C[C@H]1CCc2c1[nH]c1ccc(OCc3ccc(C4CCCC4)c(C(F)(F)F)c3)cc21", "note": "[Lot A8]", "values": [{"measurement": "BET Surface Area", "setting": "[12]; listed as A8", "result": 3.0, "unit": "m^2/g"}]}
{"smiles": "O=C(O)C[C@H]1CCc2c1[nH]c1ccc(OCc3ccc(C4CCCC4)c(C(F)(F)F)c3)cc21", "note": "[Lot A9]", "values": [{"measurement": "BET Surface Area", "setting": "[12]; listed as A9", "result": 3.1, "unit": "m^2/g"}]}
{"smiles": "O=C(O)C[C@H]1CCc2c1[nH]c1ccc(OCc3ccc(C4CCCC4)c(C(F)(F)F)c3)cc21", "note": "[Lot H1]", "values": [{"measurement": "BET Surface Area", "setting": "[12]; listed as H1", "result": 10.0, "unit": "m^2/g"}]}
{"smiles": "O=C(O)C[C@H]1CCc2c1[nH]c1ccc(OCc3ccc(C4CCCC4)c(C(F)(F)F)c3)cc21", "note": "[Lot H2]", "values": [{"measurement": "BET Surface Area", "setting": "[12]; listed as H2", "result": 13.5, "unit": "m^2/g"}, {"measurement": "weight gain at 90% RH (adsorption cycle)", "setting": "[13]; 90% RH, adsorption cycle", "result": 0.5, "unit": "% weight"}, {"measurement": "weight gain at 90% RH (desorption cycle)", "setting": "[13]; 90% RH, desorption cycle", "result": 0.7, "unit": "% weight"}]}
{"smiles": "O=C(O)C[C@H]1CCc2c1[nH]c1ccc(OCc3ccc(C4CCCC4)c(C(F)(F)F)c3)cc21", "note": "[Lot H3]", "values": [{"measurement": "BET Surface Area", "setting": "[12]; listed as H3", "result": 11.8, "unit": "m^2/g"}]}
{"smiles": "O=C(O)C[C@H]1CCc2c1[nH]c1ccc(OCc3ccc(C4CCCC4)c(C(F)(F)F)c3)cc21", "note": "[Lot H4]", "values": [{"measurement": "BET Surface Area", "setting": "[12]; listed as H4", "result": 12.0, "unit": "m^2/g"}]}
{"smiles": "O=C(O)C[C@H]1CCc2c1[nH]c1ccc(OCc3ccc(C4CCCC4)c(C(F)(F)F)c3)cc21", "note": "[Lot H5]", "values": [{"measurement": "BET Surface Area", "setting": "[12]; listed as H5", "result": 10.9, "unit": "m^2/g"}]}
{"smiles": "O=C(O)C[C@H]1CCc2c1[nH]c1ccc(OCc3ccc(C4CCCC4)c(C(F)(F)F)c3)cc21", "note": "[Lot H6]", "values": [{"measurement": "BET Surface Area", "setting": "[12]; listed as H6", "result": 12.3, "unit": "m^2/g"}]}
